Measurements as given in US20090222217A1, “Method of calculating environment risk of a chemical in soil” (AMSTED Industries Inc., priority 2008, published 2009).

What was measured:
[1] = sand, Foc 0.0003 mg/mg; Kd=Foc×Koc
Description: To obtain a value to represent the mobility of each compound, two variables are used: Henry's Law constant (H), which focuses on the physical chemistry of the chemical and the retardation factor (R), which focuses on the physical and chemical characteristics of the geological environment. The retardation factor was calculated by first calculating the distribution coefficient using Equation 1.
Values for the organic carbon partition coefficient can be obtained from location-specific testing of soil or from various published sources. And the fraction of organic carbon in soil can be obtained from location-specific testing of soil or from various published sources.

[2] = sand, bulk density 1.8 g/cm^3, effective porosity 0.25
Description: Once the distribution coefficient is calculated, the Retardation Factor can be calculated using Equation 2.
where: R is the retardation factor; ρb=bulk density of aquifer matrix (g/cm^3); Kd=distribution coefficient (mL·g^−1); η=effective porosity

[3] = published sources; cited from earlier work
[4] = more conservative of carcinogenic or chronic, oral or dermal pathway; published sources; cited from earlier work
[5] = M=(H)(R), sand
From the text: With Henry's Law constant and the retardation factor in place, the mobility of a specific compound is expressed as Equation (4):
where: M=mobility; H=Henry's Law constant; R=retardation factor

c1ccccc1 [benzene]
Kd, distribution coefficient [1]: 0.0177 mL/g
retardation factor (R) [2]: 1.13
Henry's Law constant (H) [3]: 0.228 atm.·mol^−1·m^−3
toxicity value (T) [4]: 0.04 mg/kg-day^−1
mobility factor (M) [5]: 0.2576
